The source made the active and inactive calls. The calls are words filed in the database; no cut-off is given here.
Columns and labels:
[1] = biological target: NACHT, LRR and PYD domains-containing protein 3 (Mus musculus) (UniProt Q8R4B8); assay: Inhibition of NLRP3 inflammasome activation in LPS/nigericin-treated mouse J774A.1 cells assessed as decrease in caspase-1 level pretreated for 0.5 hrs followed by stimulation with nigericin for 1 hr by Western blot analysis; assay type: cell-based; details: J774.A1, time 1.5 hrs
NACHT, LRR and PYD domains-containing protein 3 (Mus musculus), sequence (Q8R4B8 whole entry, the tested form may be a part): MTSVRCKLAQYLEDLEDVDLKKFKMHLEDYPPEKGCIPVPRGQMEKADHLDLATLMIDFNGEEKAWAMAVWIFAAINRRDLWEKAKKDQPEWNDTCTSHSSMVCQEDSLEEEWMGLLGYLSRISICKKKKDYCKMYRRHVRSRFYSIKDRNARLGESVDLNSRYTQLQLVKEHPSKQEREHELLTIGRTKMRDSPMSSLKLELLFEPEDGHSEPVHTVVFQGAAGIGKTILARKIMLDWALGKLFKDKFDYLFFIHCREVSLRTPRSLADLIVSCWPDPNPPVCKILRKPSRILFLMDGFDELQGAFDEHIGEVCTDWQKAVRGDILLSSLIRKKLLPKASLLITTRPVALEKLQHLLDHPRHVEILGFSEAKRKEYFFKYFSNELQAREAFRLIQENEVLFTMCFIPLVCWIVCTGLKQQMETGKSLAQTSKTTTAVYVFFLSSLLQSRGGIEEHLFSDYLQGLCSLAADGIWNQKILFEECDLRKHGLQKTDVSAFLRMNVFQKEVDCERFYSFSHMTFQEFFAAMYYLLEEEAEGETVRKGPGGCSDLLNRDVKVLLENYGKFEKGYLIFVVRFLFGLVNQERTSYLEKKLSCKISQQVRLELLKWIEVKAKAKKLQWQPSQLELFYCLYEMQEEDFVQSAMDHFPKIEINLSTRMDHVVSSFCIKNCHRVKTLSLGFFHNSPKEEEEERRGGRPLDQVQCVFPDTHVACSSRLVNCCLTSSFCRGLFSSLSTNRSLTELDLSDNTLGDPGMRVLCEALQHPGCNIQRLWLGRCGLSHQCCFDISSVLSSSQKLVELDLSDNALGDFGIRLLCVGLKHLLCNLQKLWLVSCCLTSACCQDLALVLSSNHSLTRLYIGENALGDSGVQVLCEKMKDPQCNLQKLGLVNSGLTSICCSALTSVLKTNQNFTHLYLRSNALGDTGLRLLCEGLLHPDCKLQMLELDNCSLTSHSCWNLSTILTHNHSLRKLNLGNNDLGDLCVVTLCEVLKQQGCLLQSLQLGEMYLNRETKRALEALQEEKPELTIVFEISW

[2] = biological target: NACHT, LRR and PYD domains-containing protein 3 (Mus musculus) (UniProt Q8R4B8); assay: Inhibition of NLRP3 inflammasome activation in LPS/nigericin-treated mouse J774A.1 cells assessed as decrease in IL-1beta level pretreated for 0.5 hrs followed by stimulation with nigericin for 1 hr by Western blot analysis; assay type: cell-based; details: J774.A1, time 1.5 hrs
[3] = biological target: NACHT, LRR and PYD domains-containing protein 3 (Mus musculus) (UniProt Q8R4B8); assay: Inhibition of NLRP3 inflammasome activation in LPS/nigericin-treated mouse J774A.1 cells assessed as decrease in pyroptosis at 20 uM pretreated for 0.5 hrs followed by stimulation with nigericin for 1 hr by fluorescent microscopic analysis; assay type: cell-based; details: J774.A1, time 1.5 hrs
[4] = biological target: NACHT, LRR and PYD domains-containing protein 3 (Mus musculus, UniProt Q8R4B8); assay: Inhibition of NLRP3 inflammasome activation in LPS/nigericin-treated mouse J774A.1 cells assessed as decrease in IL-1beta level pretreated for 0.5 hrs followed by stimulation with nigericin for 1 hr by ELISA; assay type: cell-based, J774.A1
NACHT, LRR and PYD domains-containing protein 3, sequence (Q8R4B8 whole entry, the tested form may be a part): as above

Structure (SMILES)	inhibition [1]	inhibition [2]	inhibition [3]	IC50 [4] [nM]
C=C1[C@@H](OC(C)=O)CC[C@]23C=C(C=O)[C@@H](OC(C)=O)C[C@@]2(C)[C@H](C)CC[C@@]13C	Active	Active	Active	5500
CC(C)(O)c1coc(S(=O)(=O)NC(=O)Nc2c3c(cc4c2CCC4)CCC3)c1				23.1

Reference: ChEMBL document CHEMBL5126656, “Callintegers A and B, Unusual Tricyclo[4.4.0.09,10]tetradecane Clerodane Diterpenoids from Callicarpa integerrima with Inhibitory Effects on NLRP3 Inflammasome Activation” (J Nat Prod, 2022)
